Assay type in all cases: physicochemical
Data set [1] can be described thus: Solvent solubility assessment with increasing volumes of solvent. More on the design: key to Solubility observation: # = clear solution; x = suspension. As to the method:
Example 1 was treated with increasing volumes of solvent (2-propanol (IPA), acetone, methylethyl ketone, ethyl acetate, tetrahydrofuran, acetonitrile, 1,4-dioxane, 90:10 IPA:water, 90:10 THF:water, tert-butylmethyl ether (MTBE), and n-heptane) until the material fully dissolved or until a maximum of 100 vol. had been used. After each addition of solvent, the system was stirred at 25° C. for 10 min before the addition of a new aliquot of solvent. Example 1 was readily soluble in 2-propanol (IPA), acetone, methylethyl ketone, ethyl acetate, tetrahydrofuran, acetonitrile, 1,4-dioxane, 90:10 IPA:water, and 90:10 THF:water, dissolving readily in 10 vol. solvent. MTBE and n-heptane were identified as anti-solvents when Example 1 was not soluble in 100 vol. solvent.
Amorphous Example 1 (10 mg) was treated with increasing volumes of solvent at 25° C. with stirring (Table #). […] For those instances where dissolution was not observed, the samples were placed at 50° C. for 10 minutes. To all samples still in suspension, a further 10 volumes of solvents were added and the sample placed at 25° C. The temperature was then once again increased to 50° C. and maintained until the end of the experiment. Further solvent was added until the material fully dissolved or until a maximum of 70 volumes had been used. Hydrochloric acid was then added (1.1 equivalents) to all samples. A cooling ramp was set to 5° C. at 0.1° C./min and the solutions or oils were stirred at this temperature overnight, yielding oils or solutions.
Crystalline bis tosylate Form 2 (30 mg) was treated with increasing volumes of solvent (n-Heptane, diethyl ether, ethyl acetate, isopropyl acetate, methylisobutyl ketone, 2-propanol, methylethyl ketone, acetone, dimethyl sulfoxide, water, tert-butylmethyl ether, cyclohexane, 1,4-dioxane, toluene, chloroform, 1,2-dimethoxyethane, tetrahydrofuran, N,N-dimethylformamide, acetonitrile, nitromethane, N-methylpyrrolidone, tetrahydrofuran:water 95:5, 2-propanol:water 95:5, or acetone:water 95:5 at 5, 10, 20, 30, 50, 70, or 100 vol total) until the material fully dissolved or until a maximum of 100 vol had been added. After each addition of solvent, the system was shaken gently for 10 minutes at 50° C. and then allowed to stand at ambient conditions for 5 minutes before the addition of a new aliquot of solvent. After the assessment was completed, any suspensions obtained were matured and clear solutions were cooled to 4° C. and held isothermally.

Data set [2] can be described thus: Gravimetric vapour sorption (GVS), hygroscopicity. The settings on record: for hygroscopicity: in words. The method, then: Typically 5-20 mg of sample was placed in a tared mesh stainless steel basket under ambient conditions. The sample was loaded and unloaded at 40% RH and 25° C. (typical room conditions). A moisture sorption isotherm was performed as outlined below (2 scans giving 1 complete cycle). The standard isotherm was performed at 25° C. at 10% RH intervals over a 0-90% RH range. Data analysis was carried out using Microsoft Excel using DVS Analysis Suite v6.2 (or 6.1 or 6.0).
Sorption isotherms were obtained using a SMS DVS Intrinsic moisture sorption analyzer, controlled by DVS Intrinsic Control software v1.0.1.2 (or v 1.0.1.3). The sample temperature was maintained at 25° C. by the instrument controls. The humidity was controlled by mixing streams of dry and wet nitrogen, with a total flow rate of 200 mL/min The relative humidity was measured by a calibrated Rotronic probe (dynamic range of 1.0-100% RH), located near the sample. The weight change, (mass relaxation) of the sample as a function of % RH was constantly monitored by the microbalance (accuracy±0.005 mg).

A short description of data set [3]: Chemical stability of Example 1 free base lots, HPLC purity re-test. As to the method:
Various lots of Example 1 were analyzed by HPLC shortly after synthesis (analysis from 1-24 hours post-synthesis) and re-tested for purity a unit of time later.
Purity analysis was performed on an Agilent HP1100 series system equipped with a diode array detector and using ChemStation software vB.04.03 using one of the methods detailed below: […]

Data set [4] is described as follows: Solid-state storage stability at elevated temperature and humidity (40° C./75% RH, 25° C./95-97% RH).

These results are taken from US10519118B2, “KDM1A inhibitors for the treatment of disease” (Imago Biosciences, Inc., priority 2015, dated 2019).

The structures appear in SMILES notation. Values joined by “and” are separate entries in the source; they are usually repeats but may differ in a detail not shown here. Equal entries are not always repeated. A value given as a limit tells only on which side of the number the result lay.

In the case of `CN1CCN(C(=O)[C@H](CCCN[C@@H]2C[C@H]2c2ccc(F)cc2)NC(=O)c2ccc(-n3ccnn3)cc2)CC1.Cc1ccc(S(=O)(=O)O)cc1.Cc1ccc(S(=O)(=O)O)cc1` [Example 1 bis tosylate Form 2, N—((S)-5-((1R,2S)-2-(4-fluorophenyl)cyclopropylamino)-1-(4-methylpiperazin-1-yl)-1-oxopentan-2-yl)-4-(1H-1,2,3-triazol-1-yl)benzamide bis-tosylate Form 2], the “solvent volume needed to dissolve” value is listed as more than 100 vol in data set [1] (crystalline bis tosylate Form 2, all other solvents tested incl. water, remained a suspension); 5 vol in data set [1] (crystalline bis tosylate Form 2, dimethylsulfoxide and N,N-dimethylformamide, 50° C. shaking); 10 vol in data set [1] (crystalline bis tosylate Form 2, tetrahydrofuran:water 95:5).

In the case of `CN1CCN(C(=O)C(CN[C@@H]2C[C@H]2c2ccc(F)cc2)NC(=O)c2ccc(-n3ccnn3)cc2)CC1` (stereo partly drawn) [Example 1, N-[3-[[(1R,2S)-2-(4-Fluorophenyl)cyclopropyl]amino]-1-(4-methylpiperazin-1-yl)-1-oxopropan-2-yl]-4-(1H-1,2,3-triazol-1-yl)benzamide], the hygroscopicity result in data set [2] is reported as “hygroscopic”. Also, the Solubility observation result in data set [1] (1-Butanol, 10 vol 25° C.) is “#”; in data set [1] (1-Propanol, 10 vol 25° C.), “#”; in data set [1] (2-Propanol, 10 vol 25° C.), “#”; in data set [1] (Acetone, 10 vol 25° C.) it was “#”; in data set [1] (Acetone:Water (90:10), 10 vol 25° C.), “#”; in data set [1] (Acetone:Water (95:5), 10 vol 25° C.), “#”. The Solubility observation result in data set [1] (Acetonitrile, 10 vol 25° C.) is on record as “#”; in data set [1] (Anisole, 10 vol 25° C.), “#”; in data set [1] (Cyclohexane, 10 vol 25° C.) it was “oil”; in data set [1] (Cyclohexane, 10 vol 50° C.), “oil”; in data set [1] (Cyclohexane, 20 vol 25° C.), “oil”; in data set [1] (Cyclohexane, 20 vol 50° C.) it was “oil”. Also, the Solubility observation entry in data set [1] (Cyclohexane, 40 vol 50° C.) is “oil”; in data set [1] (Cyclohexane, 70 vol 50° C.), “oil”; in data set [1] (Dichloromethane, 10 vol 25° C.) it was “#”; in data set [1] (Diethyl ether, 10 vol 25° C.) it was “oil”; in data set [1] (Diethyl ether, 10 vol 50° C.), “oil”; in data set [1] (Diethyl ether, 20 vol 25° C.) it was “oil”. Further, the Solubility observation result in data set [1] (Diethyl ether, 20 vol 50° C.) is on record as “oil”; in data set [1] (Diethyl ether, 40 vol 50° C.), “oil”; in data set [1] (Diethyl ether, 70 vol 50° C.) it was “oil”; in data set [1] (Dimethyl sulfoxide, 10 vol 25° C.) it was “#”; in data set [1] (EtOH:Water (85:15), 10 vol 25° C.), “#”; in data set [1] (Ethanol, 10 vol 25° C.), “#”. In addition, the Solubility observation result in data set [1] (IPA:Water (85:15), 10 vol 25° C.) is “#”; in data set [1] (Isopropyl acetate, 10 vol 25° C.) it was “#”; in data set [1] (MEK, 10 vol 25° C.), “#”; in data set [1] (MIBK, 10 vol 25° C.), “#”; in data set [1] (MeOH:Water (85:15), 10 vol 25° C.), “#”; in data set [1] (Methanol, 10 vol 25° C.), “#”. In addition, the Solubility observation entry in data set [1] (Methyl acetate, 10 vol 25° C.) is listed as “#”; in data set [1] (Propyl acetate, 10 vol 25° C.), “#”; in data set [1] (Toluene, 10 vol 25° C.), “#”; in data set [1] (Water, 10 vol 25° C.) it was “x”; in data set [1] (Water, 10 vol 50° C.) it was “x”; in data set [1] (Water, 20 vol 25° C.) it was “x”. Moreover, the Solubility observation entry in data set [1] (Water, 20 vol 50° C.) is given as “oil”; in data set [1] (Water, 40 vol 50° C.), “oil”; in data set [1] (Water, 70 vol 50° C.), “oil”. The “solvent volume needed to dissolve” value was 10 vol in data set [1] (25° C., IPA, acetone, methylethyl ketone, ethyl acetate, THF, acetonitrile, 1,4-dioxane, 90:10 IPA:water, 90:10 THF:water); more than 100 vol in data set [1] (25° C., MTBE and n-heptane (anti-solvents)); 10 volumes in data set [1] (amorphous free base, most solvents at 25° C.). Moreover, the observation in solvent entry in data set [1] (amorphous free base, water, diethyl ether, cyclohexane, up to 70 volumes, 25-50° C.) is given as “oils eventually formed”. Besides, the “Re-Test Purity” value came out at 82% in data set [3] (free base Lot 1, 49 days between tests) and 72% in data set [3] (free base Lot 2, 16 days between tests). The “stability at ambient conditions” value in data set [3] (free base form) is listed as “degrades at ambient conditions over time”. Further, the “Initial Purity” value in data set [3] (free base lots, HPLC 1-24 hours post-synthesis) was 93% and 81%. The “behaviour at high humidity” value in data set [4] (free base form) is on record as “deliquesces”. The “stability at elevated storage conditions” value in data set [4] (free base, 25° C./97% RH and 40° C./75% RH) was “deliquesced”.

On to `O=C(O)C(O)C(O)C(=O)O` (stereo not drawn) [tartrate], for which, in data set [2] (25° C., full cycle 0-90% RH), the GVS water uptake is recorded as approximately 30 % w/w. Besides, the hygroscopicity entry in data set [2] is “highly hygroscopic”. In addition, the “Storage at 40° C. and 75% RH (form by XRPD)” value in data set [4] (one week / 7 days) is given as “no change in form was observed”. Further, the “Storage at both 40° C. and 75% RH and 25° C. and 95% RH (form, purity)” value in data set [4] (scaled-up salts) is “changes in crystallinity and form”.
